Test results: patent publication EP4458825A1, “SALT OF AMINOPYRIMIDINE COMPOUND AND USE THEREOF” (Sunshine Lake Pharma Co., Ltd., priority 2021, dated 2023)
Counter-ions that a name gives are not always drawn. Blank lines part the entries; values can stand above or below the compound they belong to.

Legend:
[1] = Pharmacokinetics test in SD rats (oral gavage, PEG400 suspension); type: in vivo; conditions: 200 mg/kg
Protocol: The salt of the compound shown in formula (I) and the free base crystal form 2 of the compound shown in formula (I) of the present invention were respectively prepared into a suspension using PEG400, and the male SD rats were given 200 mg/kg test samples orally by gavage, and 3 animals in each group were given. Blood was collected at time points 0.25, 0.5, 1.0, 2.0, 5.0, 7.0 and 24 h after administration. Standard curve was plotted based on concentrations of the samples in a suitable range, the concentration of the test sample in the plasma sample was measured and quantified by AB SCIEX API4000-type LC-MS / MS at MRM mode. Pharmacokinetic parameters were calculated according to drug concentration -time curve using a noncompartmental by WinNonLin 6.3 software. Table 2 Pharmacokinetic experimental results data of salt and free base crystal form 2 of the present invention in male SD rats

[2] = Pharmacokinetics test in Beagle dogs (oral capsules); type: in vivo; conditions: for AUClast / Cmax / Tmax: male Beagle dogs, oral capsules, 10 mg/kg
Protocol: The salt of the compound shown in formula (I) and the free base crystal form 2 of the compound shown in formula (I) of the present invention were respectively filled with capsules for oral administration.
Male Beagle dogs of 8-12 kg were divided into 2 groups, 3 dogs in each group, and capsules containing test samples were orally administered at a dose of 10 mg/kg, and blood was collected at time points of 0.25, 0.5, 1.0, 2.0, 4.0, 6.0, 8.0 and 24 h. Standard curve was plotted based on concentrations of the samples in a suitable range, the concentration of the test sample in the plasma sample was measured and quantified by AB SCIEX API4000-type LC-MS / MS at MRM mode. Pharmacokinetic parameters were calculated according to drug concentration -time curve using a noncompartmental method by WinNonLin 6.3 software. Table 1 Pharmacokinetic experimental results data of salt and free base crystal form 2 of the present invention in Beagle dogs

[3] = Stability test: high-temperature test; type: physicochemical; conditions: for Purity: HPLC
Protocol: (§1) High-temperature test: The salt of the compound shown in formula (I) of the present invention was taken an appropriate amount and put into a flat weighing flask, divided into ≤ 3 mm thick thin layer. The samples were placed at 60 °C and 40 °C for 30 days. The samples were sampled at day 5, day 10 and day 30, and the sample color was observed. The purity of the sample was determined by HPLC.

[4] = Stability test: high-humidity test; type: physicochemical; conditions: for Purity: HPLC
Protocol: as §1, with “High-humidity” for “High-temperature”, “25 °C, RH 90% ± 5%” for “60 °C”, “25 °C, RH 75% ± 5%” for “40 °C”

Long-term stability test = type: physicochemical; conditions: for Purity: long-term, 5 °C ± 3 °C, packaged, HPLC
Protocol: Long-term stability test: The samples were inspected under the conditions of single-layer PE inner packaging, aluminum foil bag outer packaging, built-in KD-20 oxygen absorber, and vacuum nitrogen filling and heat sealing packaging, low temperature 5 °C ± 3 °C long-term test conditions, and the sample color was observed. The purity of the sample was determined by HPLC.

[5] = in Beagle dogs, compared with free base crystal form 2
[6] = High temperature (40°C), 5 days
[7] = High temperature (40°C), 10 days
[8] = High temperature (40°C), 30 days
[9] = High temperature (60°C), 5 days
[10] = High temperature (60°C), 10 days
[11] = High temperature (60°C), 30 days
[12] = High humidity RH75%, 25 °C, 5 days
[13] = High humidity RH75%, 25 °C, 10 days
[14] = High humidity RH75%, 25 °C, 30 days
[15] = High humidity RH90%, 25 °C, 5 days
[16] = High humidity RH90%, 25 °C, 10 days
[17] = High humidity RH90%, 25 °C, 30 days

- AUClast ([1]; male SD rats): 40600 ± 183 ng·h/mL
- Cmax ([1]; male SD rats): 4080 ± 375 ng/mL
- Tmax ([1]; male SD rats): 1.50 ± 0.866 h
Structure (SMILES): Cc1noc(-c2c(N)ncnc2N[C@@H](C)c2nc3cccc(C#CCO)c3c(=O)n2-c2ccccc2)n1 [crystal form A of bisulfate salt, (S)-2-(1-((6-amino-5-(3-methyl-1,2,4-oxadiazol-5-yl)pyrimidin-4-yl)amino)ethyl)-5-(3-hydroxyprop-1-yn-1-yl)-3-phenylquinazolin-4(3H)-one]

- AUClast ([1]; male SD rats): 37800 ± 6550 ng·h/mL
- Cmax ([1]; male SD rats): 3950 ± 1500 ng/mL
- Tmax ([1]; male SD rats): 1.50 ± 0.866 h
Structure (SMILES): Cc1noc(-c2c(N)ncnc2N[C@@H](C)c2nc3cccc(C#CCO)c3c(=O)n2-c2ccccc2)n1 [crystal form A of phosphate salt, (S)-2-(1-((6-amino-5-(3-methyl-1,2,4-oxadiazol-5-yl)pyrimidin-4-yl)amino)ethyl)-5-(3-hydroxyprop-1-yn-1-yl)-3-phenylquinazolin-4(3H)-one]

- blood concentration [2, 5]: higher
- exposure [2, 5]: higher
- AUClast [2]: 84200 ± 20000 ng·h/mL
- Cmax [2]: 8400 ± 1800 ng/mL
- Cmax ([1]; male SD rats): 6810 ± 1700 ng/mL
- Outward ([3]; 0 day): Light yellow powder
- Purity ([3]; 0 day): 99.78%
- Outward [3, 6]: Light yellow powder
- Purity [3, 6]: 99.74%
- Outward [3, 7]: Light yellow powder
- Purity [3, 7]: 99.78%
- Outward [3, 8]: Light yellow powder
- Purity [3, 8]: 99.69%
- Outward [3, 9]: Light yellow powder
- Purity [3, 9]: 99.61%
- Outward [3, 10]: Light yellow powder
- Purity [3, 10]: 99.44%
- Outward [3, 11]: Light yellow powder
- Purity [3, 11]: 99.1%
- appearance and purity ([3]; conditions of high temperature): not significantly changed
- Outward ([4]; 0 day): Light yellow powder
- Purity ([4]; 0 day): 99.78%
- Outward [4, 12]: Light yellow powder
- Purity [4, 12]: 99.69%
- Outward [4, 13]: Light yellow powder
- Purity [4, 13]: 99.69%
- Outward [4, 14]: Light yellow powder
- Purity [4, 14]: 99.65%
- Outward [4, 15]: Light yellow powder
- Purity [4, 15]: 99.75%
- Outward [4, 16]: Light yellow powder
- Purity [4, 16]: 99.78%
- Outward [4, 17]: Light yellow powder
- Purity [4, 17]: 99.81%
- appearance and purity ([4]; conditions of high humidity): not significantly changed
- appearance and purity (Long-term stability test; condition of long-term stability test): no obvious change
- Purity (Long-term stability test; 0 day): 99.27%
- Purity (Long-term stability test; 3 months): 99.26%
- Purity (Long-term stability test; 6 months): 99.23%
- Purity (Long-term stability test; 9 months): 99.26%
- Purity (Long-term stability test; 12 months): 99.27%
- Purity (Long-term stability test; 18 months): 99.24%
- Purity (Long-term stability test; 24 months): 99.24%
Structure (SMILES): Cc1noc(-c2c(N)ncnc2N[C@@H](C)c2nc3cccc(C#CCO)c3c(=O)n2-c2ccccc2)n1 [crystal form A of p-toluenesulfonate salt] [(S)-2-(1-((6-amino-5-(3-methyl-1,2,4-oxadiazol-5-yl)pyrimidin-4-yl)amino)ethyl)-5-(3-hydroxyprop-1-yn-1-yl)-3-phenylquinazolin-4(3H)-one]

The remaining lines, values behind:

Structure (SMILES): Cc1noc(-c2c(N)ncnc2N[C@@H](C)c2nc3cccc(C#CCO)c3c(=O)n2-c2ccccc2)n1 [Free base crystal form 2, (S)-2-(1-((6-amino-5-(3-methyl-1,2,4-oxadiazol-5-yl)pyrimidin-4-yl)amino)ethyl)-5-(3-hydroxyprop-1-yn-1-yl)-3-phenylquinazolin-4(3H)-one]
- AUClast [2]: 26700 ± 6300 ng·h/mL
- Cmax [2]: 2480 ± 600 ng/mL
- Tmax [2]: 2.36 ± 1.2 h
- AUClast ([1]; male SD rats): 39800 ± 7600 ng·h/mL
- Cmax ([1]; male SD rats): 5800 ± 850 ng/mL
- Tmax ([1]; male SD rats): 1.67 ± 0.58 h

Structure (SMILES): Cc1noc(-c2c(N)ncnc2N[C@@H](C)c2nc3cccc(C#CCO)c3c(=O)n2-c2ccccc2)n1 [(S)-2-(1-((6-amino-5-(3-methyl-1,2,4-oxadiazol-5-yl)pyrimidin-4-yl)amino)ethyl)-5-(3-hydroxyprop-1-yn-1-yl)-3-phenylquinazolin-4(3H)-one]
- Tmax ([2]; male, Beagle, dog, plasma, po, read-out: Tmax): 3 ± 1.7 h
- AUC(0-t) ([1]; male, SD, rat, plasma, po): 55200 ± 8700 ng·h/mL
- Tmax ([1]; male, SD, rat, plasma, po, read-out: Tmax): 1.33 ± 0.58 h

Structure (SMILES): Cc1noc(-c2c(N)ncnc2N[C@@H](C)c2nc3cccc(C#CCO)c3c(=O)n2-c2ccccc2)n1 [crystal form A of Sulfate salt, (S)-2-(1-((6-amino-5-(3-methyl-1,2,4-oxadiazol-5-yl)pyrimidin-4-yl)amino)ethyl)-5-(3-hydroxyprop-1-yn-1-yl)-3-phenylquinazolin-4(3H)-one]
- AUClast ([1]; male SD rats): 35300 ± 8920 ng·h/mL
- Cmax ([1]; male SD rats): 3310 ± 993 ng/mL
- Tmax ([1]; male SD rats): 1.17 ± 0.764 h
